Earlier results in patent US20210072238A1, “IMMOBILIZATION OF PROTEINS WITH CONTROLLED ORIENTATION AND LOAD” (Oregon State University, priority 2019, published 2021).

Details: ncAA incorporated in protein

Cc1nnc(-c2ccc(C[C@H](N)C(=O)O)cc2)nn1 [Tet2.0, (S)-2-amino-3-(4-(6-methyl-1,2,4,5-tetrazin-3-yl)phenyl) propanoic acid]
second-order in proteo reaction rate with sTCO: ~72,000 M^−1 s^−1
